The values that follow come from US11739051B2 (ALEXION PHARMA INTERNATIONAL OPERATIONS UNLIMITED COMPANY, priority 2018, dated 2023).

Data set [1] is described as follows: Crystallinity by X-ray powder diffraction (XRPD). Type of data set: physicochemical. The method, then:
Crystallinity was analyzed by X-ray powder diffraction (XRPD) using a Cu-anode (45 kV/40 mA), a Kα-1 monochromator and silicon-based position-sensitive 1D detector (Malvern Panalytical, X'Celerator™). The 2-theta range was 2-35° using a scan speed of 0.02°/s and a step size of 0.017°. Slow spinning sample holders were used. […] Each sample was smeared out using a Teflon bar, producing a flat powdered surface on zero background wafers of silicon (Si). The measurements were performed using a programmable incident divergence slit.
The crystallinity was evaluated using Panalytical HighScore Plus™ software (The HighScore suite; T. Degen, M. Sadki, E. Bron, U. König, G. Nénert; Powder Diffraction, Volume 29, Supplement S2, December 2014, pp S13-S18). This method is based on the following steps: 1) Calculation of the net area of the signals from the crystalline part of the sample. This area is defined as “AREAcryst.” 2) Calculation of the net total area, that is, area from the amorphous “humps” plus the net peak area from step 1. This area is defined as “AREAtotal.” In the calculation of above areas, an automatic correction of the background is made by using data collected for an empty sample holder. 3) The percent crystallinity of the sample is calculated as: (AREAcryst/AREAtotal)*100.
XRPD crystallinity results for each batch are reported Table 1.

A short description of data set [2]: Particle size distribution (PSD) by LALLS. It is filed as physicochemical. The note with it: for Dx (10)/μm: 10th percentile of particle size, paraffin oil dispersion; for Dx (50)/μm: 50th percentile of particle size; for Dx (90)/μm: 90th percentile of particle size; for >100 μm (%): percentage of particles greater than 100 μm; for <2 μm (%): percentage of particles less than 2 μm. The source says: As used herein, the term “Dx(10)/μm” refers to the 10th percentile of particle size (D10) measured in micrometers (μm). As used herein, the terms “Dx(50)/μm” or “median particle size” refer to the 50th percentile particle size (D50). As used herein, the term “Dx(90)/μm” refers to the 90th percentile of particle size (D90).
As used herein, the term “<2 μm (%)” refers to the percentage (%) of particles that are less than 2 μm. As used herein, the term “>100 μm (%)” refers to the percentage (%) of particles that are greater than 100 μm. As used herein, the percentage of particles refers to the percentage based on the population, or number, of particles.
The sample dispersion medium was paraffin oil. […] This was repeated until a stable reading was obtained.
The PSD measurements were done using the following settings: background measurement time, 20 seconds(s); sample measurement time, 20 s; dispersant refractive index, 1.45; particle refractive index, N/A (Fraunhofer), absorption, N/A (Fraunhofer); stirrer speed, 2500 rpm; analysis model: general purpose.

Data set [3] is described as follows: Specific surface area (SSA) by BET. Type of data set: physicochemical. The conditions noted are these: N2 adsorption. The method, then:
As used herein, the ten “SSA (m^2/g)” refers to specific surface area (SSA) measured in square meters (m^2) per gram (g). SSA was measured by BET according to the method described in Example 4.
Specific Surface Area (SSA) was analyzed by BET on a surface area analyzer (Gemini 2375™ from Micromeritics Instrument Corp.). […] Each sample was filled into a glass tube and “degassed” at 30° C. for 1 h under continuous N2 (g) flow in order to remove all loosely bound molecules on the external surface and from potential channels in the material. Simultaneously, the saturation pressure for the liquid nitrogen used was determined. After weighing the degassed samples, the degassed samples were inserted into the measuring position at −196° C. (boiling point for liquid nitrogen), evacuated and then exposed to a range of partial pressures basically covering the whole range from almost zero to close to 1 under adsorption mode. The lower pressures were used for SSA determination. Higher pressures were used for potential micro pore determination. In order to ascribe the right amount of nitrogen to the substances, the free volume in the tubes was measured with helium gas prior to nitrogen adsorption. The appropriate thickness values for the adsorbed layer (above the point where no absorption took place in micro pores anymore) was determined from a t-plot and subsequently used to correct the calculation by separating the adsorbed nitrogen molecules into either absorbed into potential pore like structures (the “micro pore volume”) or adsorbed onto actual external surface.

The nature of data set [4]: Stability of crystalline particles after forced degradation at 40° C. and 75% relative humidity (HPLC impurities). Type of data set: physicochemical. The procedure:
Stability analysis was performed on crystalline particles after forced degradation at 40° C. and 75% relative humidity over 3 days.

The subject of a further data set is WD patients. The conditions noted are these: once daily dosing in WD patients; cited from earlier work.
Setting [5] is: Day 3, 40° C. / 75% RH, listed as A-2.
[6] abbreviates: Day 3, 40° C. / 75% RH, listed as B-2.
Where [7] appears, read: Day 3, 40° C. / 75% RH, listed as B-3.
[8] abbreviates: Day 3, 40° C. / 75% RH, listed as B-4.

Regarding “bis-choline tetrathiomolybdate [Batch A-2]”, the “Estimated Crystallinity (%)” value in data set [1] (AREAcryst/AREAtotal*100, listed as A-2) was 86%. Further, in data set [2] (listed as A-2), the “Dx (10)/μm” value is 25.5 μm, the “Dx (50)/μm” value is 86.6 μm, the “Dx (90)/μm” value is listed as 442.0 μm and the “>100 μm (%)” value is recorded as 46.8%. Besides, the “<2 μm (%)” value in data set [2] (listed as A-2) is recorded as 0.0%. For the same substance, the “SSA (m^2/g)” value in data set [3] (listed as A-2) was 0.26 m^2/g. Besides, in data set [4] (setting [5]), the “Mo2S6O2 dimer (area %)” value is listed as 0.09 area %, the “TM2 (area %)” value was 2.38 area %, the “TM3 (area %)” value amounted to 2.78 area % and the “Total impurities (area %)” value is 5.54 area %. In data set [4] (Initial, listed as A-2), the “TM2 (area %)” value amounted to 0.29 area %, the “TM3 (area %)” value amounted to 2.04 area % and the “Total impurities (area %)” value stood at 2.34 area %.

Take “bis-choline tetrathiomolybdate [Batch B-2]”: the “Estimated Crystallinity (%)” value in data set [1] (AREAcryst/AREAtotal*100, listed as B-2) is recorded as 93%. For the same substance, in data set [2] (listed as B-2), the “Dx (10)/μm” value worked out at 5.4 μm, the “Dx (50)/μm” value came to 20.5 μm, the “Dx (90)/μm” value was determined as 59.7 μm and the “>100 μm (%)” value turned out to be 0.1%. In data set [2] (listed as B-2), the “<2 μm (%)” value amounted to 4.3%. Moreover, the “SSA (m^2/g)” value in data set [3] (listed as B-2) was 0.65 m^2/g. For the same substance, the “Mo2S6O2 dimer (area %)” value in data set [4] (Day 1, 40° C. / 75% RH, listed as B-2) amounted to 0.07 area %. Further, in data set [4] (Day 2, 40° C. / 75% RH, listed as B-2), the “Mo2S6O2 dimer (area %)” value was found to be 0.13 area %. Besides, in data set [4] (setting [6]), the “Mo2S6O2 dimer (area %)” value is given as 0.19 area %, the “TM2 (area %)” value was 0.13 area %, the “TM3 (area %)” value is recorded as 0.54 area % and the “Total impurities (area %)” value is listed as 0.97 area %. Further, in data set [4] (Initial, listed as B-2), the “TM2 (area %)” value is 0.01 area %, the “TM3 (area %)” value is given as 0.52 area % and the “Total impurities (area %)” value worked out at 0.56 area %.

Take “bis-choline tetrathiomolybdate [Batch B-3]”: the “Estimated Crystallinity (%)” value in data set [1] (AREAcryst/AREAtotal*100, listed as B-3) is 95%. In data set [2] (listed as B-3), the “Dx (10)/μm” value is 10.5 μm, the “Dx (50)/μm” value was found to be 30.0 μm, the “Dx (90)/μm” value turned out to be 54.9 μm and the “>100 μm (%)” value came out at 0.0%. For the same substance, in data set [2] (listed as B-3), the “<2 μm (%)” value stood at 2.6%. For the same substance, the “SSA (m^2/g)” value in data set [3] (listed as B-3) was determined as 0.38 m^2/g. The “Mo2S6O2 dimer (area %)” value in data set [4] (Day 1, 40° C. / 75% RH, listed as B-3) is listed as below 0.05 area %. The “Mo2S6O2 dimer (area %)” value in data set [4] (Day 2, 40° C. / 75% RH, listed as B-3) was determined as 0.07 area %. In data set [4] (setting [7]), the “Mo2S6O2 dimer (area %)” value was determined as 0.11 area %, the “TM2 (area %)” value stood at 0.10 area %, the “TM3 (area %)” value is 0.43 area % and the “Total impurities (area %)” value was found to be 0.68 area %. For the same substance, in data set [4] (Initial, listed as B-3), the “TM2 (area %)” value stood at 0.01 area %, the “TM3 (area %)” value was found to be 0.42 area % and the “Total impurities (area %)” value turned out to be 0.44 area %.

Consider Bis-choline tetrathiomolybdate [BC-TTM], for which the “Cu control and improvement of hepatic function” value in the data set on WD patients is “demonstrated to provide Cu control and improvement of hepatic function”.

“bis-choline tetrathiomolybdate [Batch B-4]”: the “Estimated Crystallinity (%)” value in data set [1] (AREAcryst/AREAtotal*100, listed as B-4) is reported as 93%. For the same substance, in data set [2] (listed as B-4), the “Dx (10)/μm” value came out at 3.6 μm, the “Dx (50)/μm” value is 12.7 μm, the “Dx (90)/μm” value was 47.6 μm and the “>100 μm (%)” value is on record as 0.0%. Moreover, the “<2 μm (%)” value in data set [2] (listed as B-4) is listed as 6.6%. In data set [3] (listed as B-4), the “SSA (m^2/g)” value stood at 1.16 m^2/g. Besides, in data set [4] (Day 1, 40° C. / 75% RH, listed as B-4), the “Mo2S6O2 dimer (area %)” value is reported as 0.06 area %. In addition, the “Mo2S6O2 dimer (area %)” value in data set [4] (Day 2, 40° C. / 75% RH, listed as B-4) is on record as 0.23 area %. Also, in data set [4] (setting [8]), the “Mo2S6O2 dimer (area %)” value was found to be 0.38 area %, the “TM2 (area %)” value was 0.19 area %, the “TM3 (area %)” value is reported as 0.23 area % and the “Total impurities (area %)” value was 1.01 area %. Moreover, the “Mo2S6O2 dimer (area %)” value in data set [4] (Initial) is below 0.05 area %. In addition, in data set [4] (Initial, listed as B-4), the “TM2 (area %)” value was found to be 0.01 area %, the “TM3 (area %)” value is 0.14 area % and the “Total impurities (area %)” value came out at 0.20 area %.
